Source: patent US6582910B1, “WbpP and method for assay of WbpP” (priority 1999, dated 2003)
“Also recorded” adds a separate entry of the source.

Assays:
WbpP [1] = target: T1, WbpP (Pseudomonas aeruginosa, UniProt Q8KN66); assay: Requirement for NAD+ or divalent cations for enzymatic activity (capillary electrophoresis); format: biochemical; conditions: NAD+ 1 mM, divalent cations 4 mM, acetylated or non-acetylated substrates
T1 construct: made in house; host or cells: E. coli BL21(DE3)pLysS, pET23 derivative
Description: Study of the Requirement for NAD+ or divalent cations for enzymatic activity—To access the requirement for NAD+ or divalent cations for the enzymatic activity of WbpP, reactions were carried out with or without NAD+ (1 mM final concentration), and with or without divalent cations (4 mM final concentration of MnCl2, MgCl2, or CaCl2) and monitored by capillary electrophoresis as described above.

WbpP [2] = target: T1, WbpP; assay: Capillary electrophoresis, kinetic parameters for UDP-GlcNAc and UDP-GalNAc; format: biochemical; conditions: acetylated substrates; for kcal: CE; for Km / Vmax: initial rates, 3 min, 37° C., 20 mM Tris pH 8, CE
Description: Determination of the kinetic parameters for UDP-GlcNAc and UDP-GalNAc by capillary electrophoresis—Reactions were performed at 37° C. in 20 mM Tris pH 8 with a total reaction volume of 44 μl. The amount of purified enzyme added was 234 ng and 117 ng for reaction with UDP-GlcNAc and UDP-GalNAc, respectively. After incubation at 37° C. for the required amount of time, the reactions were quenched by boiling the sample for 6 min. Time course studies were performed with final sugar-nucleotide concentrations of 0.075 and 1.75 mM. Samples were quenched after 0, 2, 4, 6, 8, 10 and 15 min. […] Capillary electrophoresis (CE) analysis was performed using a P/ACE 5000 system (Beckman, Fullerton, Calif.) with UV detection. The running buffer was 25 mM sodium tetraborate pH 9.4. The capillary was bare silica 75 μm×57 cm, with a detector at 50 cm. The capillary was conditioned before each run by washing with 0.2 M NaOH for 2 min, water for 2 min, and running buffer for 2 min. Samples were introduced by pressure injection for 4 s and the separation was performed at 22 kV. Peak integration was done using the Beckman P/ACE Station software. The calculation of kinetic parameters was done using the PRISM program.
FIG. 4: Capillary electrophoresis analysis of the epimerisation of UDP-GlcNAc and UDP-GalNAc by WbpP at equilibrium. The reactions were performed in a total volume of 35 μl with 1.5 mM substrate and 17 μg of enzyme. They were incubated at 37° C. for 2 h. 1, UDP-GalNAc alone; 2, UDP-GlcNAc alone; 3, UDP-GlaNAc+WbpP; 4, UDP-GlcNAc+WbpP.
FIG. 5: Time Course of epimerisation of UDP-GlcNAc and UDP-GalNAc by WbpP as measured by capillary electrophoresis. Reactions were performed at 37° C. in 20 mM Tris pH 8 with a total reaction volume of 44 μl. The amount of purified enzyme added was 234 ng and 117 ng for reaction with UDP-GlcNAc and UDP-GalNAc, respectively. Closed circles, UDP-GlcNAc 0.075 mM; Closed squares, UDP-GalNAc 0.075 mM; Open circles, UDP-GlcNAc 1.75 mM; Open squares, UDP-GalNAc 1.75 mM.

WbpP [3] = target: T1, WbpP; assay: DMAB spectrophotometric assay of epimerisation of UDP-GlcNAc and UDP-GalNAc; format: biochemical; conditions: for Specific activity: 0.75 mM substrate
Description: Determination of the enzymatic conversion of UDP-GlcNAc and UDP-GalNAc using p-dimethylaminobenzaldehyde (DMAB)—Reactions were performed with a total reaction volume of 35 μl at 37° C. in 20 mM Tris pH 8 unless stated otherwise. The specific amount of enzyme used, substrate concentrations, and incubation time are indicated in the legend of each figure. The reactions were stopped by acid hydrolysis of the UDP moiety of the substrate. For this purpose, the samples were acidified to pH 2 by addition of 7 μl of HCl 0.1 N, boiled for 6 min, and neutralised by addition of 7 μl of NaOH 0.1 N. For the spectrophotometric quantification of GalNAc and GlcNAc, the reagent DMAB was prepared at 10% in glacial acetic acid/HCl 9/1 v/v, and further diluted 1/10 in glacial acetic acid before use (Reissig et al. (1955)). For the assay itself, 100 μl of 0.2 M sodium tetraborate pH 9.1 were added to 50 μl of quenched and neutralised enzymatic reactions and boiled immediately for 3 min. 40 μl of this mixture were transferred to a microtitration plate and 200 μl of DMAB reagent were added. After incubation for 30 min at 37° C., the OD595 nm was recorded using a microplate reader. For practical reasons, the DMAB assay was carried out using a wavelength setting of 595 nm in the spectrophotometer. […] The assay was done in duplicate for each reaction tested. Standard curves were prepared using UDP-GlcNAc and UDP-GalNAc that were subjected to acid hydrolysis in the same conditions as described above.
FIG. 3: Study of the epimerisation of UDP-GlcNAc and UDP-GalNAc by WbpP using the DMAB assay. Panel A, standard curves obtained with each compound separately. Open circles, UDP-GlcNAc; Open squares, UDP-GalNAc. Panel B, comparison of the experimental data (closed triangles) obtained for mixtures of UDP-GalNAc and UDP-GlcNAc of different proportions (constant total sugar-nucleotide concentration of 0.75 mM) and the theoretical data (open triangles) calculated from the standard curves from panel 3A. 3C: Activity of WbpP as a function of the amount of enzyme added. The reactions were performed with […] substrate in a total volume of 35 μl for 8 min at 37° C. Closed circles, UDP-GlcNAc; Closed squares, UDP-GalNAc.
FIG. 6: Determination of the optimum pH and temperature for the epimerisation of UDP-GlcNAc by WbpP using the DMAB assay: For the pH study (panel A), the reactions were performed with 5 mM UDP-GlcNAc and 39 ng of enzyme in a total volume of 44 μl and incubated for 10 min at 37° C. The pH between 5 and 7 were obtained with 50 mM sodium acetate buffer (open circles), whereas pH 7 to 10 were obtained with 50 mM Tris-HCl (closed circles). For the temperature study (panel B), the reactions were performed in 50 mM Tris-HCl pH 8 with 5 mM UDP-GlcNAc and 0.78 ng of enzyme in a total volume of 44 μl and 30 min incubation. For both panels, two enzymatic reactions were set up in each experimental condition and two determinations of residual UDP-GlcNAc were made per reaction. Each point represents the average of the four determinations.

[4] = Storage stability of purified WbpP; format: physicochemical; conditions: −20° C. in 25% glycerol or 20% adonitol in Tris pH 8
Description: Purification of WbpP by chromatography—Cells sedimented from 100 ml induced culture were resuspended in 10 ml of buffer A (5 mM imidazole, 20 mM Tris pH 8, 0.1 M NaCl). The cells were briefly sonicated (macrotip, sonicator XL2020 Heat systems Incorporated, power set to 4, 2 min total, 5 sec on, 5 sec off) on ice. Cell debris were removed by centrifugation at 13000×g for 15 min at 4° C. and the supernatant was applied to a 3 ml fast flow cielating sepharose column (Amersham-Pharmacia, Quebec) previously loaded with nickel sulfate (30 ml of 0.1 M) and equilibrated with 5 column volumes (CV) of buffer A. Loading of the sample as well as all washing and elution steps were done by gravity. After loading of the sample, the column was washed with 10 CV of buffer A and 5 CV of buffer B (20 mM imidazole, 20 mM Tris pH 8, 0.1M NaCl). Elution was carried out with 3 CV of buffer C (1 M imidazole, 20 mM Tris pH 8, 0.5 M NaCl 0.1 M). Fractions were collected every 1 CV. […] This fraction was subjected to further purification by anion exchange chromatography after dilution 1/30 in 50 mM Tris pH 8. Half of it was loaded onto a 1 ml column of Q Sepharose fast flow (Pharmacia). The column was washed with 30 CV of Tris buffer and the protein was eluted with 3 CV of 50 mM Tris pH 8, 0.5 M NaCl. […] Protein quantitation was done using the BCA reagent (Pierce, Rockford, Ill.).

[5] = target: the molecule itself; assay: gel filtration on G100 Sephadex, self-association (homodimer)
[6] = fraction: anion exchange (purified WbpP)

[Ca+2].[Cl-].[Cl-] [Ca^2+]
Necessity of addition to the reaction mixture for the C4 epimerase activity (WbpP [1]): not necessary; also recorded: active without requiring addition

[Cl-].[Cl-].[Mg+2] [Mg^2+]
Necessity of addition to the reaction mixture for the C4 epimerase activity (WbpP [1]): active without requiring addition
Necessity of addition to the reaction mixture for the C4 epimerase activity (WbpP [1]; listed as Mg2^1): not necessary

[Cl][Mn][Cl] [Mn^2+]
Necessity of addition to the reaction mixture for the C4 epimerase activity (WbpP [1]): not necessary; also recorded: active without requiring addition

CC(=O)N[C@H]1[C@@H](OP(=O)(O)OP(=O)(O)OC[C@H]2O[C@@H](n3ccc(=O)[nH]c3=O)[C@H](O)[C@@H]2O)O[C@H](CO)[C@H](O)[C@@H]1O [UDP-GalNAc, UDP-N-acetylgalactosamine]
kcal (WbpP [2]): 271 ± 7 min⁻¹
Km (WbpP [2]): 197 µM
Vmax (WbpP [2]): 840 ± 25 pmol/min
Maximum substrate conversion (at equilibrium) (WbpP [3]; acetylated substrates, epimerisation by WbpP): ~70%
Specific activity (WbpP [3]; fraction: IMAC): 4.6 U/mg
Specific activity (WbpP [3]; [6]): 5.6 U/mg
Specific activity (WbpP [3]; fraction: soluble fraction): 3.4 U/mg
Specific activity (WbpP [3]; fraction: total cell extract): 2.6 U/mg
Specific activity of purified WbpP (WbpP [3]): 5.6 Units/mg

NC(=O)c1ccc[n+]([C@@H]2O[C@H](COP(=O)([O-])OP(=O)(O)OC[C@H]3O[C@@H](n4cnc5c(N)ncnc54)[C@H](O)[C@@H]3O)[C@@H](O)[C@H]2O)c1 [NAD^+]
Necessity of addition to the reaction mixture for the C4 epimerase activity (WbpP [1]): active without requiring addition
Necessity of addition to the reaction mixture for the C4 epimerase activity (WbpP [1]; listed as NAD^1): not necessary

CC(=O)N[C@H]1[C@@H](OP(=O)(O)OP(=O)(O)OC[C@H]2O[C@@H](n3ccc(=O)[nH]c3=O)[C@H](O)[C@@H]2O)O[C@H](CO)[C@@H](O)[C@@H]1O [UDP-GlcNAc, UDP-N-acetylglucosamine]
kcal (WbpP [2]): 120 ± 3 min⁻¹
Km (WbpP [2]): 224 µM
Vmax (WbpP [2]): 741 ± 22 pmol/min
Specific activity (WbpP [3]; fraction: IMAC): 2.0 U/mg
Specific activity (WbpP [3]; [6]): 2.3 U/mg
Specific activity (WbpP [3]; fraction: soluble fraction): 1.1 U/mg
Specific activity (WbpP [3]; fraction: total cell extract): 0.2 U/mg
Specific activity of purified WbpP (WbpP [3]): 2.3 Units/mg

B1: WbpPO6 carrying a N-terminal hexahistidine tag (enzyme)
chain: MHHHHHHGSMGMMSRYEELRKELPAQPKVWLITGVAGFIGSNLLETLLKLDQKVVGLDNFATGHQRNLDEVRSLVSEKQWSNFKFIQGDIRNLDDCNNACAGVDYVLHQAALGSVPRSINDPITSNATNIDGFLNMLIAARDAKVQSFTYAASSSTYGDHPGLPKVEDTIGKPLSPYAVTKYVNELYADVFSRCYGFSTIGLRYFNVFGRRQDPNGAYAAVIPKWTSSMIQGDDVYINGDGETSRDFCYIENTVQANLLAATAGLDARNQVYNIAVGGRTSLNQLFFALRDGLAENGVSYHREPVYRDFREGDVRHSLADISKAAKLLGYAPKYDVSAGVALAMPWYIMFLK
notes: Expressed in E. coli BL21(DE3)pLysS from a pET23 derivative and purified by nickel chelation and anion exchange; In the Western immunoblot it stood as the SDS-denatured single chain; this is not a protein partner; also called WbpP epimerase; UDP-GlcNAc C4 epimerase
pH with significant activity (WbpP [3]; epimerisation of UDP-GlcNAc): > 6.5
Activity after storage [4]: without any significant loss of activity
binding result [5]: binds
